Measurements published in US5059601A, “Imidazolone derivatives with activity on central nervous system and antihypertensive activity, preparation methods thereof, and pharmaceutical compositions containing them” (Istituto Lusofarmaco d'Italia S.p.A., priority 1989, dated 1991).

Legend:
[1] = toxicity in rat (DL50, oral); conditions: in vivo, read-out: toxicity in rat expressed as DL50
[2] = tested on: SHR rat; experiment: antihypertensive activity in SHR rat after oral administration; assay type: in vivo; conditions: dose of 10 mg/kg/os
From the text: Said compounds have in vitro good affinity against D2, 5-HT2, α1 receptors determined towards [3H]Spiperone, [3H]-ketanserine, and [3H]-prazosine respectively, using the methods described by Y.Z. Fields, R.D. Reisine, H.I. Yamamura, Brain Research 136, 578 (1977); Y.E. Leysen, C.Y.E. Nyemegers, Y.M. Van Neuten, P.M. Endladurong, Mol Pharmacol. 21, 322 (1981); P. Greengrass, R. Bremner, Eur. J. Pharmacol. 55, 323 (1979). They show a reduced toxicity in vivo, a good activity on central nervous system in various behaviour tests (e.g. stereotypy caused by apomorfine, central dopaminergic neuronal firing) and a good antihypertensive activity (determined in SHR rat after oral administration using the method reported by J. Pfeffer and others, J. Lab. Clin. Med. 78, 957 (1971)).

SMILES: COc1ccccc1N1CCN(CCc2[nH]c(=O)[nH]c2-c2ccc(F)cc2)CC1 [4-(4-fluorophenyl)-1,3-dihydro-5-[2-(4-(2-methoxyphenyl)-1-piperazinyl)ethyl]-2H-imidazol-2-one]
- LD50 [1]: > 2000 mg/kg
- decrease in systolic pressure [2]: about 21%
